# Source: publication PMC9308932, “Human liver microsomes study on the inhibitory effect of plantainoside D on the activity of cytochrome P450 activity” (BMC Complementary Medicine and Therapies, 2022)
# Experiments:
# Format in all cases: in vitro ADME
# CYP2C9 = target: T1, CYP2C9 (Homo sapiens, UniProt P11712); assay: CYP2C9 activity (diclofenac 4'-hydroxylation) in human liver microsomes; conditions: 0-100 μM plantainoside D
# T1 construct: Pooled human liver microsomes were obtained from BD Biosciences Discovery Labware; tissue BD Biosciences Discovery Labware; host or cells: pooled human liver microsomes
# Procedure: (§1) The activity of P450s was evaluated by corresponding metabolites using HPLC with Agilent 1260 Series Rapid Resolution HPLC. The reaction system was prepared with the following compositions: HLMs with certain protein concentrations, specific substrates of different isoenzymes, PBS buffer solution, plantainoside D or specific inhibitors, and an NADPH generating system as previously reported. Besides dextromethorphan and quinidine were dissolved in water, other substrated, inhibitors, and plantainoside D were dissolved in methanol with a final concentration of 1% (v/v). Before initiating the reaction, there was a preincubation of 3 min followed by the addition of the NADPH-generating system. [table] [table] […] Furthermore, the inhibition model of P450 isoenzymes was estimated in the presence of various concentrations of corresponding substrates and fitting with Lineweaver–Burk and Dixon plots, and the inhibition constant was calculated by the following equations: […]
# CYP2A6 = target: T2, CYP2A6 (Homo sapiens, UniProt P11509); assay: CYP2A6 activity (coumarin 7-hydroxylation) in human liver microsomes; conditions: 0-100 μM plantainoside D
# T2 construct: Pooled human liver microsomes were obtained from BD Biosciences Discovery Labware; tissue BD Biosciences Discovery Labware; host or cells: pooled human liver microsomes
# T2 sequence (P11509 1-494): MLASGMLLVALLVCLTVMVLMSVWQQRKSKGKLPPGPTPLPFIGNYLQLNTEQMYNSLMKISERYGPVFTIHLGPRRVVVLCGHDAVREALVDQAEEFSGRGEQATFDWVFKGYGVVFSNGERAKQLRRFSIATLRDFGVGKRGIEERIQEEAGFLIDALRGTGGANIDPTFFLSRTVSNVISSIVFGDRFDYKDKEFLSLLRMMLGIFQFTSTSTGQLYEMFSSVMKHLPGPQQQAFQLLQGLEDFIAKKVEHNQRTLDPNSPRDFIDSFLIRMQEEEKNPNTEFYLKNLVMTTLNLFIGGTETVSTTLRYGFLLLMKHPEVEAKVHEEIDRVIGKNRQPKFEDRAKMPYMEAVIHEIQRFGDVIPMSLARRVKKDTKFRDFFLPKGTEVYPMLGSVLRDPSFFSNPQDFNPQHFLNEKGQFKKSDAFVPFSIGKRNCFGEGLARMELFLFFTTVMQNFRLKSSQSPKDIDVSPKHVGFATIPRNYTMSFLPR
# Procedure: as §1
# CYP2B6 = target: T3, CYP2B6 (Homo sapiens, UniProt P20813); assay: CYP2B6 activity (bupropion hydroxylation) in human liver microsomes; conditions: 0-100 μM plantainoside D
# T3 construct: Pooled human liver microsomes were obtained from BD Biosciences Discovery Labware; tissue BD Biosciences Discovery Labware; host or cells: pooled human liver microsomes
# T3 sequence (P20813 1-491): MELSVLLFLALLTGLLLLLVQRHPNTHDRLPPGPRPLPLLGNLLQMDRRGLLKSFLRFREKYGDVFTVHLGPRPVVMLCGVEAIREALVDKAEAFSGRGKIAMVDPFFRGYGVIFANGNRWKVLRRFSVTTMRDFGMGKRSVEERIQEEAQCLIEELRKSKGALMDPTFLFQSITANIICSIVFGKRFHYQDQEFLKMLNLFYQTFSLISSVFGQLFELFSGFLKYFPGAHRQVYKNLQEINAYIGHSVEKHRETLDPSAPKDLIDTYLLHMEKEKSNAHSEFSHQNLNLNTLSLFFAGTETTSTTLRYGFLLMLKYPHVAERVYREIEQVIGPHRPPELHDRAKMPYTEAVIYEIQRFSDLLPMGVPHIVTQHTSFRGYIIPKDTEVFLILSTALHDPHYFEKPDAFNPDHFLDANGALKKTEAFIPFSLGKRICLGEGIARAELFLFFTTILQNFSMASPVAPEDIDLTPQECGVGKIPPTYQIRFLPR
# Procedure: as §1
# CYP2C19 = target: T4, CYP2C19 (Homo sapiens, UniProt P33261); assay: CYP2C19 activity (S-mephenytoin 4-hydroxylation) in human liver microsomes; conditions: 0-100 μM plantainoside D
# T4 construct: Pooled human liver microsomes were obtained from BD Biosciences Discovery Labware; tissue BD Biosciences Discovery Labware; host or cells: pooled human liver microsomes
# Procedure: as §1
# CYP1A2 [1] = target: T5, CYP1A2 (Homo sapiens, UniProt P05177); assay: Time-dependent inhibition of CYP1A2 in human liver microsomes; conditions: 20 μM plantainoside D; incubation 0-30 min; 1 mg/mL HLMs
# T5 construct: Pooled human liver microsomes were obtained from BD Biosciences Discovery Labware; tissue BD Biosciences Discovery Labware; host or cells: pooled human liver microsomes
# T5 sequence (P05177 1-516): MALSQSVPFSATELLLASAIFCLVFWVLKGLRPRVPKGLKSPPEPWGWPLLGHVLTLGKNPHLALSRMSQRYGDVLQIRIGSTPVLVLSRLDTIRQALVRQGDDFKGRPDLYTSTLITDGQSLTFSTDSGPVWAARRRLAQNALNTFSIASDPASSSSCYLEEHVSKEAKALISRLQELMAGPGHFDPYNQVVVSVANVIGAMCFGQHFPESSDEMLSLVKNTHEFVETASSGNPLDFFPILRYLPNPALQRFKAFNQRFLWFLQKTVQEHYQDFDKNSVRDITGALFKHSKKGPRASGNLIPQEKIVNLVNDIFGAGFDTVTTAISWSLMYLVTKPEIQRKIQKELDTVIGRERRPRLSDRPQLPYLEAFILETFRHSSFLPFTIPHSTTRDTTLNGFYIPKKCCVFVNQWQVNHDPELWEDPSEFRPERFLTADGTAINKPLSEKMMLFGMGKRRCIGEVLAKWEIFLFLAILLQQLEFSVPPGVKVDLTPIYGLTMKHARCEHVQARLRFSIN
# Procedure: (§2) A total of 1 mg/mL HLMs were firstly incubated with 20 μM plantainoside D and the NADPH-generating system for 30 min. Then, incubation with 20 μL aliquot was carried out for 0, 5, 10, 15, and 30 min in the presence of substrates concentration close to Km.
# CYP2E1 = target: T6, CYP2E1 (Homo sapiens, UniProt P05181); assay: CYP2E1 activity (chlorzoxazone 6-hydroxylation) in human liver microsomes; conditions: 0-100 μM plantainoside D
# T6 construct: Pooled human liver microsomes were obtained from BD Biosciences Discovery Labware; tissue BD Biosciences Discovery Labware; host or cells: pooled human liver microsomes
# Procedure: as §1
# CYP2C8 = target: T7, CYP2C8 (Homo sapiens, UniProt P10632); assay: CYP2C8 activity (paclitaxel 6α-hydroxylation) in human liver microsomes; conditions: 0-100 μM plantainoside D
# T7 construct: Pooled human liver microsomes were obtained from BD Biosciences Discovery Labware; tissue BD Biosciences Discovery Labware; host or cells: pooled human liver microsomes
# T7 sequence (P10632 1-490): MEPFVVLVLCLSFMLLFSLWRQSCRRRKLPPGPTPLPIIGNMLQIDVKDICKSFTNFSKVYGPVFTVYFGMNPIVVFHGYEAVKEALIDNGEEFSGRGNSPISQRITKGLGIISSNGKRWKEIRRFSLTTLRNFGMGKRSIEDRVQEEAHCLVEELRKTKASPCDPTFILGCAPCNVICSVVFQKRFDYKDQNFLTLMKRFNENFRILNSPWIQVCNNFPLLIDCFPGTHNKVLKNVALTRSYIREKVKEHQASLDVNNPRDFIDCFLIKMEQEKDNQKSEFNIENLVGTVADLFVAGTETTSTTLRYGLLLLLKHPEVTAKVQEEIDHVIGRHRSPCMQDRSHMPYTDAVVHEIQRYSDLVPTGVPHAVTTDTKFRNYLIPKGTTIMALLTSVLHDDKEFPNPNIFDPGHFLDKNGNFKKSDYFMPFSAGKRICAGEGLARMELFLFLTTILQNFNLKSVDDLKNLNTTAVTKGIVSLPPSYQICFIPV
# Procedure: as §1
# CYP2D6 [2] = target: T8, CYP2D6 (Homo sapiens, UniProt P10635); assay: Time-dependent inhibition of CYP2D6 in human liver microsomes; conditions: 20 μM plantainoside D; incubation 0-30 min; 1 mg/mL HLMs
# T8 construct: Pooled human liver microsomes were obtained from BD Biosciences Discovery Labware; tissue BD Biosciences Discovery Labware; host or cells: pooled human liver microsomes
# Procedure: as §2
# CYP2D6 [3] = target: T8, CYP2D6; assay: Concentration-dependent inhibition of CYP2D6 (dextromethorphan O-demethylation) in human liver microsomes
# Procedure: (§3) The activity of P450s was evaluated by corresponding metabolites using HPLC with Agilent 1260 Series Rapid Resolution HPLC. The reaction system was prepared with the following compositions: HLMs with certain protein concentrations, specific substrates of different isoenzymes, PBS buffer solution, plantainoside D or specific inhibitors, and an NADPH generating system as previously reported. Besides dextromethorphan and quinidine were dissolved in water, other substrated, inhibitors, and plantainoside D were dissolved in methanol with a final concentration of 1% (v/v). Before initiating the reaction, there was a preincubation of 3 min followed by the addition of the NADPH-generating system.
# (§4) The effect of plantainoside D was primarily evaluated with the concentration of 0, 2.5, 5, 10, 25, 50, and 100 μM and the values of IC50 was evaluated. Furthermore, the inhibition model of P450 isoenzymes was estimated in the presence of various concentrations of corresponding substrates and fitting with Lineweaver–Burk and Dixon plots, and the inhibition constant was calculated by the following equations:
# (§5) v=VmaxS/Km1+I/Ki+S for competitive inhibition;
# (§6) v=(VmaxS)/[Km+S(1+I/KiKI)] for non-competitive inhibition.
# (§7) where I is the concentration of plantainoside D, Ki is the inhibition constant, S is the concentration of the substrate, and Km is the substrate concentration at half the maximum velocity (Vmax) of the reaction.
# CYP3A [4] = target: T9, CYP3A (Homo sapiens, UniProt P08684); assay: Concentration-dependent inhibition of CYP3A (testosterone 6β-hydroxylation) in human liver microsomes
# Procedure: as §3, §4, §5, §6, §7
# CYP3A [5] = target: T9, CYP3A; assay: Time-dependent inhibition of CYP3A in human liver microsomes
# Procedure: as §2, with “Km. Additionally, the values of KI and Kinact were evaluated in the presence of substrates approximate to fourfold Km according to the equation: 1/Kobs=KI/Kinact×1/[I]+1/Kinact .” for “Km.”
# CYP1A2 [6] = target: T5, CYP1A2; assay: Concentration-dependent inhibition of CYP1A2 (phenacetin O-deethylation) in human liver microsomes
# Procedure: as §3, §4, §5, §6, §7
# [7] = Lineweaver-Burk plot, constant Vmax
# [8] = competitive model, Dixon plot, human liver microsomes
# [9] = human, human liver microsomes, probe testosterone (6β-hydroxylation)
# T9 sequence (P08684 2-503): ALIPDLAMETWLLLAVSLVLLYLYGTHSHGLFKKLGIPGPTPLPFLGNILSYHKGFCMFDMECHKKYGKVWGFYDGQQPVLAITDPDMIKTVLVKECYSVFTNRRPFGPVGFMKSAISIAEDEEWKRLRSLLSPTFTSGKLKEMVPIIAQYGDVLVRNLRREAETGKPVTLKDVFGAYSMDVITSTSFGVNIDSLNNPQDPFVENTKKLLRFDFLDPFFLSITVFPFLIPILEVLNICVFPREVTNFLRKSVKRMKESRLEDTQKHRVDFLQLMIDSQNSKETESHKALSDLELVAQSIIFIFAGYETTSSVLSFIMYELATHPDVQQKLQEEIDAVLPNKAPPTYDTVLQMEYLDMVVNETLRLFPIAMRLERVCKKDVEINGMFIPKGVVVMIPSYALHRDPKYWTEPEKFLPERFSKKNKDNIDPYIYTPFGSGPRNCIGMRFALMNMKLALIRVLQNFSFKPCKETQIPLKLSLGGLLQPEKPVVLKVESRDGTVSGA
# T8 sequence (P10635 whole entry): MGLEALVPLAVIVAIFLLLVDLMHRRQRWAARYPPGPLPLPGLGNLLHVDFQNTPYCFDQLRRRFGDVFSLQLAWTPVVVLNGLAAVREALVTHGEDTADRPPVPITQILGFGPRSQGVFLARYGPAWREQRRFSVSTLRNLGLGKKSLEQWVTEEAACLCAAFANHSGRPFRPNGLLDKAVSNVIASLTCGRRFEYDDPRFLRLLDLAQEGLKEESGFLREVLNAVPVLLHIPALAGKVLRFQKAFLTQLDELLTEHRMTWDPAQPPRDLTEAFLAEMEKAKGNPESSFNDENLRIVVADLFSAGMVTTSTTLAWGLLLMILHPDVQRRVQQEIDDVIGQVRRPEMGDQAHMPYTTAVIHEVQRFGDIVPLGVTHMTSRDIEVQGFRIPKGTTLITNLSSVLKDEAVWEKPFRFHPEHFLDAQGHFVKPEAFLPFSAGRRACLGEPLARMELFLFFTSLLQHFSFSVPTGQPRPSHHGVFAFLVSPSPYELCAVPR
# T6 sequence (P05181 whole entry): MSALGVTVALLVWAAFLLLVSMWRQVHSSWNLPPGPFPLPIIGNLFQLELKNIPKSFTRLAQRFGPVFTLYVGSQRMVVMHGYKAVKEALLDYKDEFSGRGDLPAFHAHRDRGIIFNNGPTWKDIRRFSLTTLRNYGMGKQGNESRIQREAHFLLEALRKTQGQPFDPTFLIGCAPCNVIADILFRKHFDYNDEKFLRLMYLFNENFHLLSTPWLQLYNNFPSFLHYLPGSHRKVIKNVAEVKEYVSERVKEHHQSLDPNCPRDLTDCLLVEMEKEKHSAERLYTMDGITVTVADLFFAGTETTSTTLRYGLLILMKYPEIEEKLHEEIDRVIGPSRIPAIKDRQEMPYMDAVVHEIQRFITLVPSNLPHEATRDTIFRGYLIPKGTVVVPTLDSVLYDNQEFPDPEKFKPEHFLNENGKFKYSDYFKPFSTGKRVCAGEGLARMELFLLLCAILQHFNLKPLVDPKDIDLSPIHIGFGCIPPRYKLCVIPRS
# T1 sequence (P11712 whole entry): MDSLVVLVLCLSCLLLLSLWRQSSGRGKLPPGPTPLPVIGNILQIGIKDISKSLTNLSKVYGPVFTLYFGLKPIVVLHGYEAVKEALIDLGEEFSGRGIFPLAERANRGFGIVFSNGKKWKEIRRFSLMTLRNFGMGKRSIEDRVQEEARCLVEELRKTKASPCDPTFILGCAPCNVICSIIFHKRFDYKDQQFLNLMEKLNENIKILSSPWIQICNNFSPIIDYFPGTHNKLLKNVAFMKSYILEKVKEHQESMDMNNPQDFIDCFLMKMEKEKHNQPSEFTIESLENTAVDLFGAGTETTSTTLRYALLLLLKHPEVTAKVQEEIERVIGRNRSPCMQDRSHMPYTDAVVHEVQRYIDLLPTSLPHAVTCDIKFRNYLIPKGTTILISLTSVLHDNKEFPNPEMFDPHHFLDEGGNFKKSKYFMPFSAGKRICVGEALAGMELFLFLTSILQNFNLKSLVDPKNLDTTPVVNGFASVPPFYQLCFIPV
# T4 sequence (P33261 whole entry): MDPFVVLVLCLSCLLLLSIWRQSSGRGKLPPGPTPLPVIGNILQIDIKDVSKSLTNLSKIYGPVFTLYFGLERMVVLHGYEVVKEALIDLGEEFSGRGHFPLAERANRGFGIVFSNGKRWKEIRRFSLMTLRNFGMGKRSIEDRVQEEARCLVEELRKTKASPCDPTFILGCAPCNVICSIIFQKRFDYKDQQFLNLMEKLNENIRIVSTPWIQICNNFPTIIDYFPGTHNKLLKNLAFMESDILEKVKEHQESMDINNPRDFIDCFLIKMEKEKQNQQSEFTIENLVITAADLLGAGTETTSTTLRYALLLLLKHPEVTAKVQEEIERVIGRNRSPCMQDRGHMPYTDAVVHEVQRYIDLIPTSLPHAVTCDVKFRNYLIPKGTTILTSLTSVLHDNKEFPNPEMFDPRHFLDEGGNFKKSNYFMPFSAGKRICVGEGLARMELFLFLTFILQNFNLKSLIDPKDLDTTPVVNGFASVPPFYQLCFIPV
compound,measurement,setting,value
"O=C(/C=C/c1ccc(O)c(O)c1)OC[C@H]1O[C@@H](OCCc2ccc(O)c(O)c2)[C@H](O)[C@@H](O[C@@H]2O[C@H](CO)[C@@H](O)[C@H](O)[C@H]2O)[C@@H]1O [plantainoside D, Plantainoside D]",Effect on CYP2C9 activity,CYP2C9,no changes
same,Effect on CYP2A6 activity,CYP2A6,no changes
same,Effect on CYP2B6 activity,CYP2B6,no changes
same,Effect on CYP2C19 activity,CYP2C19,no changes
same,Time dependence of CYP1A2 inhibition,CYP1A2 [1],no significant changes with time
same,Effect on CYP2E1 activity,CYP2E1,no changes
same,Effect on CYP2C8 activity,CYP2C8,no changes
same,Time dependence of CYP2D6 inhibition,CYP2D6 [2],no significant changes with time
same,Inhibition model of CYP2D6,CYP2D6 [3]; [7],competitive
same,Ki,CYP2D6 [3]; [8],4.54 µM
same,IC50,"CYP2D6 [3]; human liver microsomes, 0-100 μM plantainoside D, dextromethorphan substrate",8.39 µM
same,Inhibition model of CYP3A,"CYP3A [4]; Lineweaver-Burk plot, constant Km",non-competitive
same,IC50,CYP3A [4]; [9],14.7 µM
same,Ki,CYP3A [4]; [9],7.16 µM
same,Time dependence of CYP3A inhibition,"CYP3A [5]; 20 μM plantainoside D, incubation 0-30 min, 1 mg/mL HLMs",enhanced with the increasing incubation time
same,kinact,"CYP3A [5]; human liver microsomes, 0, 2, 5, 10, 20, 50 μM plantainoside D, substrate about fourfold Km",0.00065 s⁻¹
same,Inhibition model of CYP1A2,CYP1A2 [6]; [7],competitive
same,Ki,CYP1A2 [6]; [8],6.26 µM
same,IC50,"CYP1A2 [6]; human liver microsomes, 0-100 μM plantainoside D, phenacetin substrate",12.8 µM
